US12077503B2, “Substituted cyclic amides and their use as herbicides” (FMC CORPORATION, priority 2015, dated 2024)

Key:
Type in all cases: in vivo
[1] = tested on: barnyardgrass (Echinochloa crus-galli); assay: Test G Post-Emergence Protocol; settings: Echinochloa crus-galli, post-emergence, 312 h; for pest or weed control at 15.625 g/ha: 15.625 g ai/ha, evaluated after 13 days (100=total damage to plant; 0=no damage to plant), read-out: Barnyardgrass damage rating; for pest or weed control at 62.5 g/ha: 62.5 g ai/ha, read-out: Barnyardgrass damage rating (100=total damage to plant; 0=no damage to plant); for pest or weed control at 62.5 g/ha / pest or weed control at 250 g/ha: evaluated after 13 days; for pest or weed control at 250 g/ha: 250 g ai/ha, read-out: damage to plant, Barnyardgrass (100=total damage to plant; 0=no damage to plant)
In short: (§1)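 Foliar application was made 8 days after sowing, using an aqueous spray of the active in acetone/water (50:50) with 0.5% Tween 20, at doses of 15.625, 62.5 or 250 g/ha. Injury was assessed 13 days later, where 100 meant the plant was fully damaged.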

[2] = tested on: redroot pigweed (Amaranthus retroflexus); assay: Test G Post-Emergence Protocol; settings: Amaranthus retroflexus, post-emergence, 312 h; for pest or weed control at 15.625 g/ha: 15.625 g ai/ha, evaluated after 13 days (100=total damage to plant; 0=no damage to plant), read-out: Pigweed, Redroot damage rating; for pest or weed control at 62.5 g/ha: 62.5 g ai/ha, read-out: Pigweed, Redroot damage rating (100=total damage to plant; 0=no damage to plant); for pest or weed control at 62.5 g/ha / pest or weed control at 250 g/ha: evaluated after 13 days; for pest or weed control at 250 g/ha: 250 g ai/ha, read-out: damage to plant, Pigweed, Redroot (100=total damage to plant; 0=no damage to plant)
In short: as §1

[3] = tested on: ivy-leaved morning glory (Ipomoea hederacea); assay: Test G Post-Emergence Protocol; settings: Ipomoea, post-emergence, 312 h; for pest or weed control at 15.625 g/ha: 15.625 g ai/ha, evaluated after 13 days (100=total damage to plant; 0=no damage to plant), read-out: Morningglory, Ivy-leaved damage rating; for pest or weed control at 62.5 g/ha: 62.5 g ai/ha, read-out: Morningglory, Ivy-leaved damage rating (100=total damage to plant; 0=no damage to plant); for pest or weed control at 62.5 g/ha / pest or weed control at 250 g/ha: evaluated after 13 days; for pest or weed control at 250 g/ha: 250 g ai/ha, read-out: damage to plant, Morningglory, Ivy-leaved (100=total damage to plant; 0=no damage to plant)
In short: as §1

corn (Zea mays) [4] = assay: Test G Post-Emergence Protocol; settings: Zea mays, post-emergence, 312 h; for plant injury at 15.625 g/ha: 15.625 g ai/ha, evaluated after 13 days (100=total damage to plant; 0=no damage to plant), read-out: Corn damage rating; for plant injury at 62.5 g/ha: 62.5 g ai/ha, read-out: Corn damage rating (100=total damage to plant; 0=no damage to plant); for plant injury at 62.5 g/ha / plant injury at 250 g/ha: evaluated after 13 days; for plant injury at 250 g/ha: 250 g ai/ha, read-out: damage to plant, Corn (100=total damage to plant; 0=no damage to plant)
In short: as §1

[5] = tested on: velvetleaf (Abutilon theophrasti); assay: Test G Post-Emergence Protocol; settings: Abutilon theophrasti, post-emergence, 312 h; for pest or weed control at 15.625 g/ha: 15.625 g ai/ha, evaluated after 13 days (100=total damage to plant; 0=no damage to plant), read-out: Velvetleaf damage rating; for pest or weed control at 62.5 g/ha: 62.5 g ai/ha, read-out: Velvetleaf damage rating (100=total damage to plant; 0=no damage to plant); for pest or weed control at 62.5 g/ha / pest or weed control at 250 g/ha: evaluated after 13 days; for pest or weed control at 250 g/ha: 250 g ai/ha, read-out: damage to plant, Velvetleaf (100=total damage to plant; 0=no damage to plant)
In short: as §1

[6] = tested on: giant foxtail (Setaria faberi); assay: Test G Post-Emergence Protocol; settings: Setaria faberi, post-emergence, 312 h; for pest or weed control at 15.625 g/ha: 15.625 g ai/ha, evaluated after 13 days (100=total damage to plant; 0=no damage to plant), read-out: Foxtail, Giant damage rating; for pest or weed control at 62.5 g/ha: 62.5 g ai/ha, read-out: Foxtail, Giant damage rating (100=total damage to plant; 0=no damage to plant); for pest or weed control at 62.5 g/ha / pest or weed control at 250 g/ha: evaluated after 13 days; for pest or weed control at 250 g/ha: 250 g ai/ha, read-out: damage to plant, Foxtail, Giant (100=total damage to plant; 0=no damage to plant)
In short: as §1

[7] = tested on: barnyardgrass (Echinochloa crus-galli); assay: Test G Pre-Emergence Protocol; settings: Echinochloa crus-galli, pre-emergence, 312 h, evaluated after 13 days; for pest or weed control at 15.625 g/ha: 15.625 g ai/ha, read-out: Barnyard grass damage rating (100=total damage to plant; 0=no damage to plant); for pest or weed control at 62.5 g/ha: 62.5 g ai/ha, 100=total damage to plant, 0=no damage to plant, read-out: plant damage rating, Barnyardgrass; for pest or weed control at 250 g/ha: 250 g ai/ha, read-out: Barnyardgrass damage rating (100=total damage to plant; 0=no damage to plant)
In short: (§2)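 Seeds were sown in standard soil and kept one day in a glasshouse (24/16° C day/night, 14 h light, 65% humidity), then sprayed with compound in acetone/water (50:50) containing 0.5% Tween 20 at 15.625, 62.5 or 250 g/ha. Damage was scored after 13 days (0 = none, 100 = total).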

[8] = tested on: redroot pigweed (Amaranthus retroflexus); assay: Test G Pre-Emergence Protocol; settings: Amaranthus retroflexus, pre-emergence, 312 h, evaluated after 13 days; for pest or weed control at 15.625 g/ha: 15.625 g ai/ha; for pest or weed control at 15.625 g/ha / pest or weed control at 250 g/ha: read-out: Pigweed, Redroot damage rating (100=total damage to plant; 0=no damage to plant); for pest or weed control at 62.5 g/ha: 62.5 g ai/ha, 100=total damage to plant, 0=no damage to plant, read-out: plant damage rating, Pigweed, Redroot; for pest or weed control at 250 g/ha: 250 g ai/ha
In short: as §2

[9] = tested on: ivy-leaved morning glory (Ipomoea hederacea); assay: Test G Pre-Emergence Protocol; settings: Ipomoea, pre-emergence, 312 h, evaluated after 13 days; for pest or weed control at 15.625 g/ha: 15.625 g ai/ha, read-out: Morning-glory, Ivy-leaved damage rating (100=total damage to plant; 0=no damage to plant); for pest or weed control at 62.5 g/ha: 62.5 g ai/ha, 100=total damage to plant, 0=no damage to plant, read-out: plant damage rating, Morningglory, Ivy-leaved; for pest or weed control at 250 g/ha: 250 g ai/ha, read-out: Morningglory, Ivy-leaved damage rating (100=total damage to plant; 0=no damage to plant)
In short: as §2

corn (Zea mays) [10] = assay: Test G Pre-Emergence Protocol; settings: Zea mays, pre-emergence, 312 h, evaluated after 13 days; for plant injury at 15.625 g/ha: 15.625 g ai/ha; for plant injury at 15.625 g/ha / plant injury at 250 g/ha: read-out: Corn damage rating (100=total damage to plant; 0=no damage to plant); for plant injury at 62.5 g/ha: 62.5 g ai/ha, 100=total damage to plant, 0=no damage to plant, read-out: plant damage rating, Corn; for plant injury at 250 g/ha: 250 g ai/ha
In short: as §2

[11] = tested on: velvetleaf (Abutilon theophrasti); assay: Test G Pre-Emergence Protocol; settings: Abutilon theophrasti, pre-emergence, 312 h, evaluated after 13 days; for pest or weed control at 15.625 g/ha: 15.625 g ai/ha; for pest or weed control at 15.625 g/ha / pest or weed control at 250 g/ha: read-out: Velvetleaf damage rating (100=total damage to plant; 0=no damage to plant); for pest or weed control at 62.5 g/ha: 62.5 g ai/ha, 100=total damage to plant, 0=no damage to plant, read-out: plant damage rating, Velvetleaf; for pest or weed control at 250 g/ha: 250 g ai/ha
In short: as §2

[12] = tested on: giant foxtail (Setaria faberi); assay: Test G Pre-Emergence Protocol; settings: Setaria faberi, pre-emergence, 312 h, evaluated after 13 days; for pest or weed control at 15.625 g/ha: 15.625 g ai/ha; for pest or weed control at 15.625 g/ha / pest or weed control at 250 g/ha: read-out: Foxtail, Giant damage rating (100=total damage to plant; 0=no damage to plant); for pest or weed control at 62.5 g/ha: 62.5 g ai/ha, 100=total damage to plant, 0=no damage to plant, read-out: plant damage rating, Foxtail, Giant; for pest or weed control at 250 g/ha: 250 g ai/ha
In short: as §2

CN1C[C@@H](c2ccc(C(F)(F)F)cc2)[C@H](C(=O)Nc2ncc[nH]2)C1=O (racemic) [Compound 1536]
0%: pest or weed control at 15.625 g/ha [1] | pest or weed control at 62.5 g/ha [1] | pest or weed control at 250 g/ha [1] | pest or weed control at 15.625 g/ha [2] | pest or weed control at 62.5 g/ha [2] | pest or weed control at 250 g/ha [2] | pest or weed control at 15.625 g/ha [3] | pest or weed control at 62.5 g/ha [3] | pest or weed control at 250 g/ha [3] | plant injury at 15.625 g/ha (corn (Zea mays) [4]) | plant injury at 62.5 g/ha (corn (Zea mays) [4]) | plant injury at 250 g/ha (corn (Zea mays) [4]) | pest or weed control at 15.625 g/ha [5] | pest or weed control at 62.5 g/ha [5] | pest or weed control at 250 g/ha [5] | pest or weed control at 15.625 g/ha [6] | pest or weed control at 62.5 g/ha [6] | pest or weed control at 250 g/ha [6] | pest or weed control at 15.625 g/ha [7] | pest or weed control at 62.5 g/ha [7] | pest or weed control at 250 g/ha [7] | pest or weed control at 15.625 g/ha [8] | pest or weed control at 62.5 g/ha [8] | pest or weed control at 250 g/ha [8] | pest or weed control at 15.625 g/ha [9] | pest or weed control at 62.5 g/ha [9] | pest or weed control at 250 g/ha [9] | plant injury at 15.625 g/ha (corn (Zea mays) [10]) | plant injury at 62.5 g/ha (corn (Zea mays) [10]) | plant injury at 250 g/ha (corn (Zea mays) [10]) | pest or weed control at 15.625 g/ha [11] | pest or weed control at 62.5 g/ha [11] | pest or weed control at 250 g/ha [11] | pest or weed control at 15.625 g/ha [12] | pest or weed control at 62.5 g/ha [12] | pest or weed control at 250 g/ha [12]

COC(=O)c1nccc(NC(=O)[C@@H]2C(=O)N(C)C[C@H]2c2ccc(C(F)(F)F)cc2)n1 (racemic) [Compound 1537]
0%: pest or weed control at 15.625 g/ha [1] | pest or weed control at 62.5 g/ha [1] | pest or weed control at 250 g/ha [1] | pest or weed control at 15.625 g/ha [2] | pest or weed control at 62.5 g/ha [2] | pest or weed control at 250 g/ha [2] | pest or weed control at 15.625 g/ha [3] | pest or weed control at 62.5 g/ha [3] | pest or weed control at 250 g/ha [3] | plant injury at 15.625 g/ha (corn (Zea mays) [4]) | plant injury at 62.5 g/ha (corn (Zea mays) [4]) | plant injury at 250 g/ha (corn (Zea mays) [4]) | pest or weed control at 15.625 g/ha [5] | pest or weed control at 62.5 g/ha [5] | pest or weed control at 250 g/ha [5] | pest or weed control at 15.625 g/ha [6] | pest or weed control at 62.5 g/ha [6] | pest or weed control at 250 g/ha [6] | pest or weed control at 15.625 g/ha [7] | pest or weed control at 62.5 g/ha [7] | pest or weed control at 250 g/ha [7] | pest or weed control at 15.625 g/ha [8] | pest or weed control at 62.5 g/ha [8] | pest or weed control at 250 g/ha [8] | pest or weed control at 15.625 g/ha [9] | pest or weed control at 62.5 g/ha [9] | pest or weed control at 250 g/ha [9] | plant injury at 15.625 g/ha (corn (Zea mays) [10]) | plant injury at 62.5 g/ha (corn (Zea mays) [10]) | plant injury at 250 g/ha (corn (Zea mays) [10]) | pest or weed control at 15.625 g/ha [11] | pest or weed control at 62.5 g/ha [11] | pest or weed control at 250 g/ha [11] | pest or weed control at 15.625 g/ha [12] | pest or weed control at 62.5 g/ha [12] | pest or weed control at 250 g/ha [12]
